Assay results taken from patent US20050165030A1, “Pharmaceutical compositions comprising a multifunctional phosphodiesterase inhibitor and an adenosine uptake inhibitor” (priority 2001, published 2005).
Where two headings read alike, the source gives them in different places. Each block holds one compound with its values, some of them ahead of it.

Columns and labels:
[1] = tested on: platelets in human whole blood; assay: whole blood platelet aggregation in vitro (collagen); format: cell-based; conditions: for inhibition of platelet aggregation: alone: cilostazol 0.3-3 μM, dipyridamole 1 or 3 μM, 0.1 or 0.3 μg/ml collagen; for effect on platelet aggregation in whole blood: alone: cilostazol 10 or 30 μM, dipyridamole 0.1, 0.3, 1 or 3 μM, 0.5 μg/ml collagen
Method: The electrodes were then placed in the cuvette and the sample was allowed to incubate at 37° C. while the instrument was calibrated. […] Dipyridamole was diluted in ethanol (EtOH) to a stock concentration of 100 mM. […] The suspension was allowed to incubate for 3 minutes before collagen was added. […] […] Data are expressed as percent of the values detected in the absence of any inhibition.

human washed platelets = assay: collagen-induced aggregation of washed platelets; format: cell-based; conditions: for inhibitory effect on washed platelet aggregation: alone: dipyridamole 1, 3 or 10 μM, cilostazol 30 or 100 nM, adenosine 1 μM; for IC50: Homo sapiens, Platelet; for inhibition of washed platelet aggregation: single agent + 1 μM adenosine (dipyridamole 1, 3, 10 μM; cilostazol 30 or 100 nM)
Method: Aggregation was quantified by the change in light transmission using an AG-10 Aggregation Analyzer (Kowa, Japan). Washed platelets were maintained at room temperature and the study was performed within 3 hours following blood collection. Cilostazol was dissolved in DMSO and adenosine was dissolved in water. […] Drug or vehicle (DMSO) was then added (0.4 μl) and incubated for another 3 minutes. […] The overall time of aggregation recorded was 15 minutes.

[2] = tested on: adenosine uptake into washed human erythrocytes; assay: [3H]adenosine uptake into washed erythrocytes; format: cell-based
Method: Washed erythrocytes (wRBC) were prepared as follows.

[3] = tested on: whole blood platelet aggregation; assay: ex vivo whole blood platelet aggregation, clinical crossover study; format: in vivo, human; conditions: alone: cilostazol 100 mg, dipyridamole 200 mg
Method: On study day 4, subjects received one 200 mg tablet of dipyridamole. […] The platelet aggregation was induced by the addition of collagen (final concentration of 0.3 μg/ml, Nycomed Arzneimittel, Munchen, Germany). The percentage aggregation was recorded at each time point. To compare the effect of drug treatments, the aggregation at 2-hour and 4-hour is normalized as a percentage to the values prior to dosing.

[4] = blood concentration after single oral dose; format: in vivo, human; conditions: 2 and 4 hours after a single dose
[5] = tested on: isolated rabbit Langendorff hearts; assay: cardiac function of isolated rabbit Langendorff hearts
Method: This study was conducted in accordance with the “Guide for the Care And Use of Laboratory Animals”, published by the National Research Council, 1996, Washington D.C., and approved by the Institutional Animal Care and Use Committee of Otsuka Maryland Research Institute, LLC. […] A tracheotomy was performed and the animals were intubated. […] The respiratory rate was adjusted to keep arterial blood PO2, PCO2 and pH in the physiological range. […] Hearts were exposed through a mid-line incision of the chest, and quickly excised by an incision at the base of the heart and put into ice-cold Krebs-Henseleit bicarbonate buffer. The heart was then attached to a Langendorff apparatus by the aortic root, and perfused with non-recirculating Krebs-Henseleit buffer at a constant pressure of 75 mmHg. The perfusate was bubbled with 95% O2 and 5% CO2 gas mixture, and the bubbling rate was adjusted to maintain physiological pH (7.35-7.45). Perfusate temperature was maintained at 38° C. by a circulating waterjacket surrounding the buffer reservoirs. The heart was also maintained at 38° C. via a water-jacketed housing in which it was suspended. The open top of the jacket was covered with a piece of parafilm to maintain the humidity and temperature. The pulmonary artery around the right side of the aortic root was cannulated for collecting coronary effluent and for coronary flow rate measurement with a graduated cylinder. […] The pressure transducer was connected to a Grass Chart Recorder (Model 7) to record left ventricular pressure and its first derivative (dp/dt), and heart rate. Hearts with left ventricular developing pressure less than 85 mmHg at the end of the 15-min equilibrium period were not included in the study. The cardiac function indexes measured were LVDP (left ventricular developed pressure), dp/dtmax (the maximal value of the first derivative of the LVDP), heart rate, and coronary flow. […] Measurements for cardiac function were taken at the end of each 5 min drug treatment. The effect of drug treatment is expressed as the percent change of values before and after each drug treatment: % Change from Baseline=[(Value after drug−Value before drug)/Value before drug]×100 Statistical Analysis

[6] = blood concentration during intravenous infusion; format: in vivo, rabbit; conditions: cilostazol 0.225 mg/kg bolus + 0.0175 mg/kg/min i.v.; dipyridamole 20 μg/kg/min i.v.
Method: Sixty minutes after the surgery, injection of vehicle or the drug combination was initiated. After 20 minutes, the gastrocnemius muscle of the left hindlimb was stimulated throughout the rest of the experiment. Twenty minutes after the stimulation (40 minute time point in FIG. 15), the left femoral artery was clamped for 20 minutes to induce ischemia and then released to allow reperfusion. The regional blood flow was determined by the injection at 0, 20, 40, 60, and 80 minutes of blue-green, yellow-green, orange, red and crimson fluorescent microspheres.

adenosine uptake = conditions: cited from earlier work; for IC50: read-out: IC50 of adenosine uptake inhibition
PDE3 = conditions: Liu et al., 2000; read-out: potency for inhibition of PDE3; cited from earlier work
[7] = tested on: isolated rabbit Langendorff hearts; conditions: concentrations below 1 μM, previous studies; cited from earlier work
[8] = tested on: adenosine A2A-expressing Chinese hamster ovary (CHO) cells; assay: CRE-luciferase assay (intracellular cAMP) in CHO cells expressing human adenosine A2A receptor; format: cell-based; conditions: range 0.5 μM to 10 μM
Method: The level of luciferase expression reflects the concentration of intracellular cAMP. […] Therefore, the activation of the receptors would be reflected by luciferase expression, where the expression level can be measured by the luciferase activity assay. Co-transfection of the luciferase reporter vector with the vectors containing adenosine A2A receptors was carried out by calcium phosphate precipitation into Chinese hamster ovary (CHO) cells. Stable transfectants were selected with 1.0 mg/ml G418 (Life Technologies) for 12 days. The cell clones over-expressing functional adenosine A2A receptors were determined by luciferase expression under the stimulation of adenosine.
The next day, the cells were washed once with F12K medium supplemented with 0.5% FCS and then incubated with 100 μl of the medium only (basal) or medium plus test agents for 4 hours at 37° C. After equilibrating to room temperature, 100 μl of detection substrate (Bright-Glo™ luciferase assay system, Promega, Madison, Wis.) were added to each well. The luciferase activity was measured after 5 minutes using a Mediators PhL luminescence plate reader (ImmTech, New Windsor, Md.). The value of luminescence (arbitrary unit) detected during half a second was taken as luciferase activity.

whole blood = assay: adenosine concentration in plasma of collagen-stimulated whole blood (HPLC); format: cell-based, human; conditions: dipyridamole 1 μM, 5 minutes after 2 μg/ml collagen, n=3
Method: Blood was drawn and mixed with recombinant human huridin (100 U/ml). The same procedure for platelet aggregation was used to stimulate these platelets with collagen (2 μg/ml). After a 5-minute incubation, 500 μl of WB were mixed quickly with 500 μl of ice-cold saline. The cells were spun at 20,000×g for 4 minutes at 4° C. Supernatant (600 μl) was first mixed with 300 μl PCA (2.5 N) and then neutralized with 300 μl of KHCO3 (2.5 M). Finally, the mixture was centrifuged at 20,000×g for 15 minutes at 4° C. The adenosine concentration in the supernatants was measured using reverse-phase high performance liquid chromatography (HPLC, Waters Alliance 2690) with a Hypersil 3μ C18 column (150 mm×4.6 mm) and a gradient from 5 to 20% methanol in 20 mM KH2PO4. Adenosine was detected using a diode array detector (Water 996) with an absorbance change at 258 nm and quantified by comparison of retention times and peak height with those of a known external standard. Quantification was performed using Waters Millennium 32 Client/Server software.

[9] = 2 and 4 hours after a single dose of 200 mg, previous pharmacokinetic data; cited from earlier work
[10] = tested on: adenosine uptake into CHO cells over-expressing functional human A2A receptors; assay: [3H]adenosine uptake into CHO cells over-expressing human A2A receptors; format: cell-based; conditions: compared with platelets and erythrocytes, data not shown
[11] = dipyridamole 0.3, 1 or 3 μM with cilostazol

Compound: Nc1nc(NCCc2ccc(O)cc2)nc2nc(-c3ccco3)nn12 [ZM241385]
- effect on the synergistic effect of dipyridamole and cilostazol on whole blood aggregation ([1]; ZM241385 0.1 μM, n=8): reverted back to the basal level of cilostazol alone

Compound: Nc1ncnc2c1ncn2[C@@H]1O[C@H](CO)[C@@H](O)[C@H]1O [adenosine]
- effect on collagen-induced platelet aggregation (human washed platelets; 1 μM, by itself): little effect
- inhibitory effect on washed platelet aggregation (human washed platelets): no effect

Compound: O=C1CCc2cc(OCCCCc3nnnn3C3CCCCC3)ccc2N1 [cilostazol, 6-[4-(1-cyclohexyl-1H-tetrazol-5yl)butoxy]-3,4-dihydro-2(1H)-quinolinone]
- effect on collagen-induced platelet aggregation (human washed platelets; 1 μM, by itself): little effect
- IC50 (human washed platelets; read-out: IC50 of Cilostazol on Platelet Aggregation, +Adenosine (1 μM)): 380 ± 50 nM
- IC50 (human washed platelets; read-out: IC50 of Cilostazol on Platelet Aggregation, +Adenosine + Dipyridamole (1 μM)): 170 ± 40 nM
- IC50 (human washed platelets; read-out: IC50 of Cilostazol on Platelet Aggregation, +Adenosine + Dipyridamole (3 μM)): 110 nM
- IC50 (human washed platelets; read-out: IC50 of Cilostazol on Platelet Aggregation, +Adenosine + Dipyridamole (10 μM)): 10 ± 10 nM
- IC50 (human washed platelets; read-out: IC50 of Cilostazol on Platelet Aggregation, cilostazol alone, washed platelets, collagen): 2660 ± 410 nM
- inhibitory effect on washed platelet aggregation (human washed platelets): no significant inhibitory effect
- effect on collagen-induced platelet aggregation (human washed platelets; cilostazol 1 μM combined with adenosine 1 μM): completely inhibited
- inhibition of washed platelet aggregation (human washed platelets): significant differences from controls
- IC50 ([2]; Homo sapiens, Erythrocyte, washed erythrocytes, n=3, read-out: IC50 of adenosine uptake inhibition): ~7000 nM
- inhibition of platelet aggregation [1]: did not cause any significant inhibition
- effect on platelet aggregation in whole blood [1]: did not have a significant effect
- inhibition of ex vivo platelet aggregation [3]: neither cilostazol nor dipyridamole alone inhibited
- blood concentration [4]: about 2 μM
- coronary flow ([5]; cilostazol 3 or 10 μM): significantly increased
- blood concentration [6]: about 1 μM
- IC50 (adenosine uptake; various cells (rabbit cardiac myocytes, human vascular smooth muscle, endothelial cells), Liu et al., 2000): 5000 to 10000 nM
- IC50 (PDE3): 320 nM
- effects on cardiac function [7]: minimal effects

- effect on cardiac function ([5]; dipyridamole 0.3, 1 or 3 μM alone): no significant effect
- cilostazol-induced increase of cardiac contractility [5, 11]: significantly reduced
- blood concentration [6]: about 1 μM
Compound: OCCN(CCO)c1nc(N2CCCCC2)c2nc(N(CCO)CCO)nc(N3CCCCC3)c2n1 [dipyridamole]
- inhibitory effect on washed platelet aggregation (human washed platelets): no significant inhibitory effect
- inhibition of washed platelet aggregation (human washed platelets): enhanced the effect of dipyridamole significantly
- dipyridamole concentration of peak enhancement of cilostazol effect on luciferase activity [8]: about 5 μM
- inhibition of platelet aggregation [1]: did not cause any significant inhibition
- effect on platelet aggregation in whole blood [1]: did not have a significant effect
- platelet aggregation ([1]; dipyridamole 1 μM, 2 μg/ml collagen): not affected
- adenosine levels in whole blood plasma (whole blood): 5.916 ± 0.641 µM
- inhibition of ex vivo platelet aggregation [3]: neither cilostazol nor dipyridamole alone inhibited
- cilostazol-induced increase of heart rate [5, 11]: significantly reduced
- cilostazol-induced increase in coronary flow ([5]; dipyridamole 1 and 3 μM with cilostazol 10 μM): augmented
- IC50 (adenosine uptake): 10 nM
- blood concentration [9]: about 2 μM

Compound: Cc1[nH]c(=O)c(C#N)cc1-c1ccncc1 [milrinone]
- effect on adenosine uptake ([2]; erythrocytes): virtually no effect
- inhibition of [3H]adenosine uptake [10]: no effect
- inhibitory effect on adenosine uptake (adenosine uptake; at concentrations as high as 100 μM, Liu et al., 2000): no significant inhibitory effect
